Source: patent US20240107999A1, “ANTIBACTERIAL COMPOSITION” (LG CHEM, LTD., priority 2021, published 2024)

Columns and labels:
P. mirabilis (ATCC29906) [1] = assay: Antibacterial strength (bacteriostatic reduction rate) by Methods 1 to 4, broth culture absorbance at 600 nm; type: cell-based; details: Proteus mirabilis, 16 hours, 35° C.; for inhibition of growth at 200 µg/mL: amount of antibacterial composition added 0.005 g in 25 ml broth, 3,000 CFU/ml, read-out: Antibacterial strength (%) Method 2; for inhibition of growth at 400 µg/mL: amount of antibacterial composition added 0.01 g in 25 ml broth, 3,000 CFU/ml, read-out: Antibacterial strength (%) Method 4; for inhibition of growth at 600 µg/mL: amount of antibacterial composition added 0.015 g in 25 ml broth, 3,000 CFU/ml, read-out: Antibacterial strength (%) Method 1; for inhibition of growth at 800 µg/mL: amount of antibacterial composition added 0.02 g in 25 ml broth, 3,000 CFU/ml, read-out: Antibacterial strength (%) Method 3
Method: (§1) After 25 ml of a broth-type medium (Nutrient broth, BD DIFCO., 8 g/L) inoculated with 3,000 CFU/ml bacteria is put into a 50 mL conical tube, 0.015 g of the antibacterial composition is added thereto and suspended (by vortexing), a sufficiently mixed solution is incubated for 16 hours in a shaking water bath maintained at 35° C.
(§2) After the incubated solution was diluted to ⅕ using a 1×PBS buffer solution, absorbance (λ=600 nm) was measured using a UV/Vis spectrophotometer, and the antibacterial strength, which is a bacteriostatic reduction rate, is calculated by the following equation by comparing the measured absorbance with a solution incubated without the addition of the antibacterial composition.
(§3) Antibacterial strength(%)=(1−Asample/AReference)×100 • Asample=Absorbance of medium solution incubated by adding antibacterial composition • AReference=Absorbance of medium solution incubated without addition of antibacterial composition
(§4) This method is the same as Method 1, except that 0.005 g of the antibacterial composition is added instead of 0.015 g of the antibacterial composition.
(§5) This method is the same as Method 1, except that 0.02 g of the antibacterial composition is added instead of 0.015 g of the antibacterial composition.
(§6) This method is the same as Method 1, except that 0.01 g of the antibacterial composition is added instead of 0.015 g of the antibacterial composition.
The antibacterial strength of Monomers 1 to 10 and Comparative Monomers 1 and 2 by Methods 1 to 4 was measured, and is shown in the following Table 1. In this case, the P. mirabilis (ATCC29906) bacteria were used.

P. mirabilis (ATCC29906) [2] = assay: Time at which 99.9% of the antibacterial strength is confirmed (Methods 1 to 4); type: cell-based, Proteus mirabilis; details: for Time at which 99.9% of the antibacterial strength is confirmed, Method 2: amount of antibacterial composition added 0.005 g; for Time at which 99.9% of the antibacterial strength is confirmed, Method 4: amount of antibacterial composition added 0.01 g; for Time at which 99.9% of the antibacterial strength is confirmed, Method 1: amount of antibacterial composition added 0.015 g; for Time at which 99.9% of the antibacterial strength is confirmed, Method 3: amount of antibacterial composition added 0.02 g
Method: as §1, §2, §3, §4, §5, §6
The time at which 99.9% of the antibacterial strength of Monomers 1 to 10 and Comparative Monomers 1 and 2 is confirmed is shown in the following Table 2.

[3] = Acute oral toxicity dose LD50 by 3T3 Neutral Red Uptake (NRU) assay (OECD Guidance Document No 129); type: cell-based; details: mouse, 3T3 cells, po, calculated from 3T3 NRU assay
Method: (§7) The acute oral toxicity dose LD50 and acute percutaneous toxicity dose LD50 were measured by 3T3 Neutral Red Uptake (NRU) assay (OECD Guidance Document No 129). Specifically, the acute oral toxicity dose LD50 and acute percutaneous toxicity dose LD50 can be calculated by the following method: […]

3T3 = assay: as above; type: cell-based; details: calculated from 3T3 NRU assay
Method: as §7

[4] = Acute percutaneous toxicity dose LD50 by 3T3 Neutral Red Uptake (NRU) assay (OECD Guidance Document No 129); type: cell-based; details: mouse, 3T3 cells, other: percutaneous, calculated from 3T3 NRU assay
Method: as §7

| SMILES | inhibition of growth at 200 µg/mL (P. mirabilis (ATCC29906) [1]) [%] | inhibition of growth at 400 µg/mL (P. mirabilis (ATCC29906) [1]) [%] | inhibition of growth at 600 µg/mL (P. mirabilis (ATCC29906) [1]) [%] | inhibition of growth at 800 µg/mL (P. mirabilis (ATCC29906) [1]) [%] | Time at which 99.9% of the antibacterial strength is confirmed, Method 2 (P. mirabilis (ATCC29906) [2]) | Time at which 99.9% of the antibacterial strength is confirmed, Method 4 (P. mirabilis (ATCC29906) [2]) | Time at which 99.9% of the antibacterial strength is confirmed, Method 1 (P. mirabilis (ATCC29906) [2]) | Time at which 99.9% of the antibacterial strength is confirmed, Method 3 (P. mirabilis (ATCC29906) [2]) | LD50 [3] [mg/kg] | Acute oral toxicity dose (mg/Kg) LD50 (3T3) | LD50 [4] [mg/kg] |
| --- | --- | --- | --- | --- | --- | --- | --- | --- | --- | --- | --- |
| C=CC(=O)OCC[N+](CCCCCCCC)(CCCCCCCC)CCCCCCCC [Monomer 4] | 99.9 | 99.9 | 99.9 | 99.9 | Within 1 hour | Within 1 hour | Within 1 hour | Within 1 hour | ≥ 1000 | 1,442 mg/Kg | ≥ 2000 |
| C=CC(=O)OCC[N+](CCCC)(CCCC)CCCCCCCC [Monomer 1] | 59.3 | 68.2 | 99.9 | 99.9 |  |  | Within 1 hour | Within 1 hour | ≥ 1000 | 1,708 mg/Kg | ≥ 2000 |
| C=C(C)C(=O)OCC[N+](CCCC)(CCCCCC)CCCCCCCCCC (stereo not shown) [Monomer 6] | 99.9 | 99.9 | 99.9 | 99.9 | Within 1 hour | Within 1 hour | Within 1 hour | Within 1 hour | ≥ 1000 | 1,111 mg/Kg | ≥ 2000 |
| C=C(C)C(=O)OCC[N+](CCCC)(CCCCCCCC)CCCCCCCCCC (stereo not shown) [Monomer 7] | 99.9 | 99.9 | 99.9 | 99.9 | Within 1 hour | Within 1 hour | Within 1 hour | Within 1 hour | 998 |  | ≥ 2000 |
| C=CC(=O)OCC[N+](CCCCCCCCCCCCCC)(CCCCCCCCCCCCCC)CCCCCCCCCCCCCC [Comparative Monomer 2, reference compound] | 99.9 | 99.9 | 99.9 | 99.9 | Within 1 hour | Within 1 hour | Within 1 hour | Within 1 hour | 231 |  |  |
| C=CC(=O)OCC[N+](CCCC)(CCCC)CCCCCC [Comparative Monomer 1, reference compound] | 22.6 | 30.7 | 38.8 | 46.9 |  |  |  |  | 2360 |  |  |
